Measured values taken from patent publication US20260072027A1, “Peptides And Method” (Queen Mary University of London, priority 2022, published 2026).
“Also recorded” adds a separate entry of the source. Where no end group is shown, it is not given here.

Assays:
[1] = tested on: autoantibodies to oxPTM-INS; assay: Competitive displacement ELISA, plate coated with oxidised insulin; assay type: binding, human
Protocol: A competitive displacement assay was performed to map the exact epitope, namely the exact amino acid sequence binding specificities and to test the binding to native peptides versus oxidised insulin peptides. The binding to the peptide was done by direct ELISA on the native or modified peptides or by competition ELISA. Initially native synthetic peptide was oxidised by exposing to 0.05 mM CuCl2; 90 mM H2O2; 10 mM NaOCl. Native and modified peptides were fractionated by AKTA to evaluated changes in molecular profile. AKTA fractions were then tested by ELISA for reactivity (FIGS. 2 and 3). We next perform competition ELISA with the native peptides and peptides exposed to 0.05 mM CuCl2; 90 mM H2O2; 10 mM NaOCl. Serum samples were pre-incubated with either native insulin peptides or oxidised insulin peptides. Finally, based on the amino acid sequence of the identified peptides we predicted the amino acids that would be oxidised by ^●OH and HOCl and designed synthetic peptides that contain the oxidised amino acids in the synthesis. Synthetic peptides were produced by standard commercially available methods, specifically by Peptide Protein Research Ltd. Briefly, peptide synthesis was performed by automated solid phase peptide synthesis (SPPS), which was followed by purification. Each individual amino acid was added to the growing chain according to the sequence. Where specified, dihydroxyphenylalanine was added to replace Tyr or cysteate were added to replace Cys. Similarly, these peptides were tested by competition ELISA. The table below describe the different competition ELISA performed:
Serum samples from children with type 1 diabetes were pre-incubated with the synthetic peptides before they were added to the native insulin or oxidised that were previously coated on the ELISA plate. If the antibodies in the serum sample bind to the peptide they will no longer bind to the insulin or oxidised insulin on the plate-competition ELISA. 1:200 dilutions of serum samples from T1D serum samples were pre-incubated for 2 hr at room temperature with the various peptides as shown in the table above. After incubation, serum/peptide mix was added to the ELISA plate previously coated overnight with either native insulin or oxidised insulin for an additional 2 hr incubation. Plates were then washed in a plate washer three times with PBS 0.05% tween. After washing, 100 ul of anti-human IgG diluted 1:1000 in 1% milk-PBS 0.05% tween were added for additional 1 hour and 30 min incubation. After washing, ELISA was developed by adding 100 ul of TMB (10 mg/ml in DMSO) in 10 ml of 0.1 M sodium acetate plus 2 ul of H2O2. Reaction was stopped by adding 0.5 M H2SO4 (usually 20 min for insulin ELISA).
To assess the binding specificity of serum samples to identified peptides, a competitive ELISA was performed. The ELISA was carried out following the method described above, except that the serum samples were pre-incubated for 2 h with and without 10 μg/ml peptides as competitors, before adding the serum samples to the insulin coated ELISA plate.

CD4+ T-cells (PBMCs) = assay: In vitro peptide stimulation and T-cell proliferation assay, CD4+; assay type: cell-based, human; conditions: Type 1 diabetes (N = 18)
Method in brief: (§1)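 CellTrace Violet-labelled fresh PBMCs from type 1 diabetic and healthy donors cultured 7 days in 5% autologous plasma with or without 20 μg/ml insulin peptides. Proliferation measured by flow cytometry as dye dilution within the CD4+ or CD8+ subset. Stimulation index = % proliferation stimulated/% unstimulated.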

CD8+ T-cells (PBMCs) = assay: In vitro peptide stimulation and T-cell proliferation assay, CD8+; assay type: cell-based, human
Method in brief: as §1

[2] = tested on: CD4+ and CD8+ T-cells and IgG autoantibodies; assay: Overlap of CD4+, CD8+ and IgG antibody responses (Venn analysis); assay type: cell-based, human; conditions: type 1 diabetes
From the text: FIG. 13. Venn diagrams of CD4^+, CD8^+ and antibody response to oxPTM-INSPs. Panels a, b, and c show the overlap between IgG autoantibody and T-cell (CD4^+ and CD8^+) responses specific to oxPTM-INSP-3 (a), Nt-INSP-4 (b) and oxPTM-INSP-6 (c). Panels d, e, and f display the overlap between T-cell responses to the three insulin peptides and IgG to oxPTM-INS modified by hydroxyl radical (^●OH-INS). […] There is concordance between reactivity to oxPTM-INS and CD4^+ and CD8^+ reactivity for all three tested peptides (7/17, 8/18 and 8/18 for oxPTM-INSP-3, Nt-INSP-4 and oxPTM-INSP-6, respectively). The stimulatory index >1 was used for definition of positive T-cell response.
Correlation between T-cell stimulation and antibody response. Subjects evaluated for T-cell stimulation were also tested for antibody reactivity to either oxPTM-INSPs or oxidised intact insulin (oxPTM-INS) to assess correlations between humoral and cellular responses (FIG. 11-e-f). In study cohort 2, antibody reactivity to oxPTM-INSP-6 was the highest as observed in the study cohort 1, with 11/18 (61.1%) binding to at least one oxPTM-INSP-6 derivatives (p<0.001 oxPTM-INSP-6 vs. Nt-INSP-6). Detailed analysis of autoantibody response in this cohort is described in the ESM (ESM results Antibody binding to oxPTM-INSPs in Study cohort 2).
We then analysed the extent of correlation between CD4^+, CD8^+ and IgG antibody responses. […] The CD4^+ T cell response to Nt-INSP-4 frequently overlapped with CD8^+ (13/18 [72.2%]), and to a lesser extent to antibodies (7/18 [38.8%]). […] CD4^+ response to oxPTM-INSP-6 was linked to both CD8^+ and/or antibodies: […] patients had concordant CD4^+ and CD8^+ responses, while 9/18 (50%) patients had concordant CD4^+ and antibody responses. […] CD4^+ T-cell stimulation to Nt-INSP-4, oxPTM-INSP-6 and oxPTM-INSP-3 was associated with antibody reactivity to oxPTM-INS in 8/18 (44.4%), 8/18 (44.4%) and 7/18 (38.9%) type 1 diabetes patients.

[3] = target: Serum IgG autoantibodies of subjects with type 1 diabetes (human); assay: competitive ELISA, T1D serum pre-incubated with peptide, plate coated with oxidised insulin (FIG. 2B)
[4] = target: Serum IgG autoantibodies of subjects with type 1 diabetes (human); assay: competitive ELISA, T1D serum pre-incubated with peptide, plate coated with oxidised insulin (Example 3)
[5] = target: Serum IgG autoantibodies of subjects with type 1 diabetes (human); assay: competitive ELISA, T1D serum pre-incubated with peptide, plate coated with oxidised insulin (FIG. 2A)

oxPTM-INSP-6: oxidised forms of insulin peptide 6 (B:21-30), in house oxidised or in silico derivatives (ERGFFYTPKT; not fully specified (N-terminus); also: oxidised forms, in house oxidised or in silico derivatives, modified residues not defined)
inhibition of type 1 diabetes serum binding to oxPTM-INS (in words) ([1]; sera pre-incubated with peptide competitor): strongly inhibited binding to oxPTM-INS; also recorded: able to inhibit the binding | reduced binding to oxidised whole insulin ([1]; type 1 diabetes sera pre-incubated with peptide): 35-75% | CD4+ T-cell response, subjects with SI > 3 (%) (CD4+ T-cells (PBMCs)): 66.7% | CD8+ T-cell response, subjects with SI > 1 (%) (CD8+ T-cells (PBMCs); Controls (N = 11)): 27.3% | CD8+ T-cell response, subjects with SI > 1 (%) (CD8+ T-cells (PBMCs); Type 1 diabetes (N = 18)): 72.2% | concordance between reactivity to oxPTM-INS and CD4+ and CD8+ reactivity (patients/patients) ([2]; Study cohort 2): 8/18 | patients with CD4+ T-cell stimulation associated with antibody reactivity to oxPTM-INS ([2]; Study cohort 2): 44.4% | patients with CD4+, CD8+ T-cells to the peptide and autoantibodies to oxPTM-INS simultaneously ([2]; Study cohort 2): 33.3% | patients with concordant CD4+ and antibody responses to the peptide ([2]; Study cohort 2): 50% | patients with concordant CD4+, CD8+ and IgG antibody response to the peptide ([2]; Study cohort 2): 44.4% | patients with overlapping (concordant) CD4+ and CD8+ responses to the peptide ([2]; Study cohort 2, SI >1): 72.2%

B1: oxPTM-INSP-6, peptide 6 oxidised in house (oxidant not specified at the place) (peptide)
peptide: ERGFFYTPKT
modifications: not fully specified (N-terminus); also: oxidised in house (CuCl2, H2O2, NaOCl), modified residues not defined
% reduction of serum binding to oxidised whole insulin [3]: 35 to 75% | % reduction of serum binding to oxidised whole insulin [4]: 35 to 70%

B2: oxPTM-INSP-3, peptide 3 oxidised in house (oxidant not specified at the place) (peptide)
peptide: SLYQLENYCN
modifications: not fully specified (N-terminus); also: oxidised in house (CuCl2, H2O2, NaOCl), modified residues not defined
% reduction of serum binding to oxidised whole insulin [5]: 35 to 80% | % reduction of serum binding to oxidised whole insulin [4]: 40 to 80%
